Source: patent US7179832B2, “Glycogen synthase kinase 3β inhibitor, composition and process for the preparation thereof” (Crystalgenomics, Inc., priority 2003, dated 2007)
pIC50: −log10 of the molar value.

Biological target: GSK-3β (Homo sapiens, UniProt P49841)
Test: Assay for GSK-3β inhibiting activity (32P-ATP, phospho-CREB peptide substrate, filter paper, CPM)
Type: biochemical
Settings: GSK-3β inhibiting activity; 100 nM GSK-3β protein, 100 μM phospho-CREB peptide, 100 μM ATP, 30° C. for 1 hour; read-out: IC50

GSK-3β, sequence (P49841 whole entry): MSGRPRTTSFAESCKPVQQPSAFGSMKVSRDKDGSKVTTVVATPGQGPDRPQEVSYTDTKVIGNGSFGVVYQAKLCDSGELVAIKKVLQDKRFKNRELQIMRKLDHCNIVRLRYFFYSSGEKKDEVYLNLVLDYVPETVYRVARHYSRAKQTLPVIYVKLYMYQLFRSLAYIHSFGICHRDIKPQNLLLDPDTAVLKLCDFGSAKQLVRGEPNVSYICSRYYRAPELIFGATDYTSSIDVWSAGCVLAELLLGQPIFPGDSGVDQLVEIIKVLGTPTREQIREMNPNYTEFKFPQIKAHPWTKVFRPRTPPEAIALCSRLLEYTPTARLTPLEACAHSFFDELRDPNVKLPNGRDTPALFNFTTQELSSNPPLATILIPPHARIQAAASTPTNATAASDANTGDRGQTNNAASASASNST

Row | Compound | pIC50
1 | O=C(NCCCN1CCCC1=O)c1ccc(O)c2[nH]c(-c3ccccc3)nc12 [Compound 164] | 6.08
2 | O=C(NCCCn1ccnc1)c1ccc(O)c2[nH]c(-c3ccccc3)nc12 [Compound 165] | 7.10
3 | O=C(NCCCN1CCOCC1)c1ccc(O)c2[nH]c(-c3ccccc3)nc12 [Compound 166] | < 6.00
4 | Cc1nccn1CCCNC(=O)c1ccc(O)c2[nH]c(-c3ccccc3)nc12 [Compound 167] | 7.00
5 | CCCCNC(=O)c1ccc(O)c2[nH]c(-c3ccc(Cl)cc3)nc12 [Compound 168] | < 6.00
6 | O=C(NCCCN1CCCC1=O)c1ccc(O)c2[nH]c(-c3ccc(Cl)cc3)nc12 [Compound 169] | < 6.00
7 | O=C(NCCCn1ccnc1)c1ccc(O)c2[nH]c(-c3ccc(Cl)cc3)nc12 [Compound 170] | 6.72
8 | O=C(NCCCN1CCOCC1)c1ccc(O)c2[nH]c(-c3ccc(Cl)cc3)nc12 [Compound 171] | < 6.00
9 | O=C(NCCCn1ccnc1-c1ccccc1)c1ccc(O)c2[nH]c(-c3ccc(Cl)cc3)nc12 [Compound 172] | 6.10
10 | Cc1cn(CCCNC(=O)c2ccc(O)c3[nH]c(-c4ccc(Cl)cc4)nc23)cn1 [Compound 173] | 7.00
11 | O=C(NCCCn1cnc(Cl)c1Cl)c1ccc(O)c2[nH]c(-c3ccc(Cl)cc3)nc12 [Compound 174] | 7.40
12 | CCCCNC(=O)c1ccc(O)c2[nH]c(-c3ccc(Cl)cc3Cl)nc12 [Compound 176] | 6.35
13 | O=C(NCCCN1CCCC1=O)c1ccc(O)c2[nH]c(-c3ccc(Cl)cc3Cl)nc12 [Compound 177] | 6.70
14 | O=C(NCCCn1ccnc1)c1ccc(O)c2[nH]c(-c3ccc(Cl)cc3Cl)nc12 [Compound 178] | 7.40
15 | O=C(NCCCN1CCOCC1)c1ccc(O)c2[nH]c(-c3ccc(Cl)cc3Cl)nc12 [Compound 179] | < 6.00
16 | O=C(NCCCn1ccnc1-c1ccccc1)c1ccc(O)c2[nH]c(-c3ccc(Cl)cc3Cl)nc12 [Compound 180] | 6.68
17 | Cc1cn(CCCNC(=O)c2ccc(O)c3[nH]c(-c4ccc(Cl)cc4Cl)nc23)cn1 [Compound 181] | 7.52
18 | O=C(NCCCn1cnc(Cl)c1Cl)c1ccc(O)c2nc(-c3ccc(Cl)cc3Cl)[nH]c12 [Compound 182] | 8.10
19 | Cc1nccn1CCCNC(=O)c1ccc(O)c2[nH]c(-c3ccc(Cl)cc3Cl)nc12 [Compound 183] | 7.22
20 | CC(C)c1nccn1CCCNC(=O)c1ccc(O)c2[nH]c(-c3ccc(Cl)cc3Cl)nc12 [Compound 184] | 6.82

Row | Compound | pIC50
21 | O=C(NCCCn1ccnc1)c1ccc(O)c2[nH]c(-c3ccc(F)cc3)nc12 [Compound 185] | < 6.00
22 | CC(C)c1nccn1CCCNC(=O)c1ccc(O)c2[nH]c(-c3ccc(F)cc3)nc12 [Compound 186] | 7.30
23 | Cc1cn(CCCNC(=O)c2ccc(O)c3[nH]c(-c4ccc(F)cc4)nc23)cn1 [Compound 187] | 8.00
24 | Cc1nccn1CCCNC(=O)c1ccc(O)c2[nH]c(-c3ccc(F)cc3)nc12 [Compound 188] | 8.70
25 | CCc1nccn1CCCNC(=O)c1ccc(O)c2[nH]c(-c3ccc(F)cc3)nc12 [Compound 189] | < 6.00
26 | O=C(NCCCn1cnc(Cl)c1Cl)c1ccc(O)c2[nH]c(-c3ccc(F)cc3)nc12 [Compound 190] | 8.22
27 | CC(C)c1nccn1CCCNC(=O)c1ccc(O)c2[nH]c(-c3ccc(F)cc3F)nc12 [Compound 191] | 7.05
28 | O=C(NCCCn1ccnc1)c1ccc(O)c2[nH]c(-c3ccc(F)cc3F)nc12 [Compound 192] | 8.10
29 | Cc1cn(CCCNC(=O)c2ccc(O)c3[nH]c(-c4ccc(F)cc4F)nc23)cn1 [Compound 193] | 7.70
30 | O=C(NCCCn1cnc(Cl)c1Cl)c1ccc(O)c2[nH]c(-c3ccc(F)cc3F)nc12 [Compound 194] | 8.40
31 | Cc1nccn1CCCNC(=O)c1ccc(O)c2[nH]c(-c3ccc(F)cc3F)nc12 [Compound 195] | 7.52
32 | CCc1nccn1CCCNC(=O)c1ccc(O)c2[nH]c(-c3ccc(F)cc3F)nc12 [Compound 196] | 7.70
33 | O=C(NCCCn1cnc(Cl)c1Cl)c1ccc(O)c2[nH]c(-c3ccc(F)cc3F)nc12 [Compound 197] | 8.52
34 | O=C(NCCCn1ccnc1)c1ccc(O)c2[nH]c(-c3ccc(F)cc3Cl)nc12 [Compound 198] | 7.70
35 | Cc1cn(CCCNC(=O)c2ccc(O)c3[nH]c(-c4ccc(F)cc4Cl)nc23)cn1 [Compound 199] | 8.00
36 | O=C(NCCCn1cnc(Cl)c1Cl)c1ccc(O)c2[nH]c(-c3ccc(F)cc3Cl)nc12 [Compound 200] | 8.70
37 | Cc1nccn1CCCNC(=O)c1ccc(O)c2[nH]c(-c3ccc(F)cc3Cl)nc12 [Compound 201] | 7.15
38 | Cc1cn(CCCNC(=O)c2ccc(O)c3[nH]c(-c4ccc(F)c(Cl)c4)nc23)cn1 [Compound 202] | 8.05
39 | O=C(NCCCn1ccnc1)c1ccc(O)c2nc(-c3ccc(F)c(Cl)c3)[nH]c12 [Compound 203] | 8.52
40 | O=C(NCCCn1cnc(Cl)c1Cl)c1ccc(O)c2[nH]c(-c3ccc(NCCN4CCOCC4)cc3)nc12 [Compound 204, 7-hydroxy-2-[4-(2-morpholin-4-yl-ethylamino)-phenyl]-1H-benzoimidazole-4-carboxylic acid [3-(4,5-dichloro-imidazol-1-yl)-propyl]-amide] | < 5.30
